Experimental data published in PMC6981581, “N-(2-Arylmethylthio-4-Chloro-5-Methylbenzenesulfonyl)amide Derivatives as Potential Antimicrobial Agents—Synthesis and Biological Studies” (International Journal of Molecular Sciences, 2019).
≈ marks a conversion by molar mass, not a printed value. Where “and” joins values, the source holds several entries; their conditions need not be identical. Equal values may be shown once. Read-outs that look alike come from different tables or passages of the source.

What was measured:
Format in all cases: cell-based
[1] = test system: Candida albicans ATCC 10231; assay: Broth dilution MIC/MFC, reference fungal strain; conditions: for MFC / MIC: Candida albicans, ATCC10231; for MFC/MIC: C. a. ATCC 10231
Description: (§1) The tests were carried out using a serial dilution method, allowing the determination of MIC (minimal concentration inhibiting bacterial growth), MBC (minimal bactericidal concentration), and MFC (minimal fungicidal concentration) values.
(§2) Antimicrobial activity was tested using the following reference strains: Staphylococcus aureus ATCC 6538 (MSSA), Staphylococcus aureus ATCC 43300 (MRSA), Staphylococcus epidermidis PCM 2118, Escherichia coli ATCC 11229, Pseudomonas aeruginosa ATCC 15442, Proteus vulgaris NCTC 4635, Enterococcus faecalis ATCC 11420, and Candida albicans ATCC 10231.
(§3) A broth dilution method was used to determine minimal inhibitory concentration (MIC) for tested compounds as recommended by Clinical Laboratory Standards Institute (CLSI) guidelines. Investigated compounds were diluted in Mueller Hinton Broth 2 (Sigma-Aldrich Co., St. Louis, MO, USA) in polypropylene 96-well plates and initial inoculum 5 × 10^5 cfu/mL were incubated at 37 °C for 18 h. MIC was taken as the lowest drug concentration at which an observable growth was inhibited. […] The loopful (10 µL) of the tested sample was transferred to Tryptic Soy Agar (TSA, Becton-Dickinson, Franklin Lakes, NJ, USA) and incubated at 37 °C for 48 h. […] Drug Solutions were made fresh on the day of the assay. All experiments were performed in triplicate.

[2] = test system: Escherichia coli ATCC 11229; assay: Broth dilution MIC/MBC, reference strain; conditions: for MBC / MIC: Escherichia coli, ATCC11229; for MBC/MIC: E. c. ATCC 11229
Description: as §1, §2, §3

[3] = test system: Staphylococcus aureus ATCC 43300 (MRSA); assay: Broth dilution MIC/MBC, reference strain; conditions: for MBC / MIC: Staphylococcus aureus; for MBC/MIC: S. a. ATCC 43300
Description: as §1, §2, §3

[4] = test system: Pseudomonas aeruginosa ATCC 15442; assay: Broth dilution MIC/MBC, reference strain; conditions: for MBC / MIC: Pseudomonas aeruginosa, ATCC15442; for MBC/MIC: P. a. ATCC 15442
Description: as §1, §2, §3

[5] = test system: Staphylococcus aureus ATCC 6538 (MSSA); assay: Broth dilution MIC/MBC, reference strain; conditions: for MBC / MIC: Staphylococcus aureus; for MBC/MIC: S. a. ATCC 6538
Description: as §1, §2, §3

[6] = test system: Proteus vulgaris NCTC 4635; assay: Broth dilution MIC/MBC, reference strain; conditions: for MBC / MIC: Proteus vulgaris, NCTC4635; for MBC/MIC: P. v. NCTC 4635
Description: as §1, §2, §3

[7] = test system: Staphylococcus epidermidis PCM 2118; assay: Broth dilution MIC/MBC, reference strain; conditions: for MIC / MBC: Staphylococcus epidermidis; for MBC/MIC: S. e. PCM 2118
Description: as §1, §2, §3

[8] = test system: Enterococcus faecalis ATCC 11420; assay: Broth dilution MIC/MBC, reference strain; conditions: for MBC / MIC: Enterococcus faecalis, ATCC11420; for MBC/MIC: E. f. ATCC 11420
Description: as §1, §2, §3

HCT-116 (colon cancer) = assay: MTT cell viability assay; conditions: Homo sapiens, 72 h incubation, mean ± SD
Description: (§4) Analysis was performed using the MTT test and 72 h of incubation.
(§5) All chemicals were obtained from Sigma-Aldrich (St. Louis, MO, USA). The MCF-7 and HeLa cell lines were purchased from Cell Lines Services (Eppelheim, Germany), the HCT-116 cell line was purchased from ATCC (ATCC-No: CCL-247). Cells were cultured in Dulbecco’s modified Eagle’s medium (DMEM) supplemented with 10% fetal bovine serum, 2 mM glutamine, 100 units/mL penicillin, and 100 μg/mL streptomycin. Cultures were held in an incubator (Heraceus, HeraCell) in a humidified atmosphere with 5% CO2 at 37 °C.
(§6) Cell viability was evaluated using the MTT (3-(4,5-dimethylthiazol-2-yl)-2,5-diphenyltetrazolium bromide) assay. Stock solutions of the studied compounds were obtained in 100% DMSO. […] Cells at a density of 5 × 10^3 cells/well, seeded in 96-well plates, were treated for 72 h with the tested compounds in the concentration range 1–100 μM (1, 10, 25, 50 and 100 μM). After treatment, cells were incubated for 2 h with MTT (0.5 mg/mL) at 37 °C. Cells were lysed with DMSO and the absorbance of the formazan solution was measured at 550 nm with a plate reader (1420 multilabel counter, Victor, Jügesheim, Germany). Values are expressed as the mean ± SD of at least three independent experiments conducted in triplicate.

HeLa (cervical cancer) = assay: MTT cell viability assay; conditions: Homo sapiens, 72 h incubation, mean ± SD
Description: as §4, §5, §6

MCF-7 (breast cancer) = assay: MTT cell viability assay; conditions: Homo sapiens, MCF7, 72 h incubation, mean ± SD
Description: as §4, §5, §6

[9] = test system: HaCaT cell line (human keratinocyte); assay: MTT cell viability assay; conditions: MTT assay, 72 h incubation, mean ± SD, read-out: IC50 HaCaT
[10] = PCM2118, S. epidermidis PCM 2118
[11] = C. albicans ATCC 10231, read-out: MFC
[12] = C. albicans ATCC 10231, read-out: MIC
[13] = E. coli ATCC 11229, read-out: MBC
[14] = E. coli ATCC 11229, read-out: MIC
[15] = S. aureus ATCC 43300, read-out: MBC
[16] = S. aureus ATCC 43300, read-out: MIC
[17] = P. aeruginosa ATCC 15442, read-out: MBC
[18] = P. aeruginosa ATCC 15442, read-out: MIC
[19] = S. aureus ATCC 6538, read-out: MBC
[20] = S. aureus ATCC 6538, read-out: MIC
[21] = P. vulgaris NCTC 4635, read-out: MBC
[22] = P. vulgaris NCTC 4635, read-out: MIC
[23] = PCM2118, S. epidermidis PCM 2118, read-out: MIC
[24] = E. faecalis ATCC 11420, read-out: MBC
[25] = E. faecalis ATCC 11420, read-out: MIC
[26] = PCM2118, S. epidermidis PCM 2118, read-out: MBC

Compound | MFC/MIC [1] | MFC [1, 11] [µg/mL] | MIC [1, 12] [µg/mL] | IC50 (HCT-116 (colon cancer)) [µM] | IC50 (HeLa (cervical cancer)) [µM] | IC50 (MCF-7 (breast cancer)) [µM] | IC50 [9] | MBC/MIC [2] | MBC [2, 13] [µg/mL] | MIC [2, 14] [µg/mL] | MBC/MIC [3] | MBC [3, 15] [µg/mL] | MIC [3, 16] [µg/mL] | MBC/MIC [4] | MBC [4, 17] [µg/mL] | MIC [4, 18] [µg/mL] | MBC/MIC [5] | MBC/MIC [6] | MBC/MIC [7] | MBC/MIC [8] | other results
Cc1cc(S(=O)(=O)NC(=O)CCC2CCCCC2)c(SCc2ccccc2)cc1Cl [Compound 8, N-(2-Benzylthio-4-chloro-5-methylbenzenesulfonyl)-3-cyclohexylpropanamide] | – | – | – | – | – | – | – | – | – | – | – | – | – | – | – | – | – | – | – | – | MFC [1]: 128 µg/mL (≈ 275 µM); MIC [1]: 64 µg/mL (≈ 137 µM); MBC [2]: > 128 µg/mL; MIC [2]: 128 µg/mL (≈ 275 µM); MBC [3]: > 128 µg/mL; MIC [3]: 16 µg/mL (≈ 34.3 µM); MBC [4]: > 128 µg/mL; MIC [4]: 128 µg/mL (≈ 275 µM); MBC [5]: > 128 µg/mL; MIC [5]: 32 µg/mL (≈ 68.7 µM); MBC [6]: > 128 µg/mL; MIC [6]: 64 µg/mL (≈ 137 µM); MIC ([7]; PCM2118): 8 µg/mL (≈ 17.2 µM); MBC [7, 10]: 32 µg/mL (≈ 68.7 µM); MBC [8]: > 128 µg/mL; MIC [8]: 128 µg/mL (≈ 275 µM)
Cc1cc(S(=O)(=O)NC(=O)C=Cc2ccccc2)c(SCc2ccc(C(F)(F)F)cc2)cc1Cl [Compound 14, N-[4-Chloro-5-methyl-2-(4-trifluoromethylbenzylthio)benzenesulfonyl]cinnamamide] | 2 | 128 (≈ 243 µM) | 64 (≈ 122 µM) | 81 ± 1 | 96 ± 5 | 73 ± 1 | 147 µg/mL and 280 µM | 1 | 128 (≈ 243 µM) | 128 (≈ 243 µM) | 16 | 128 (≈ 243 µM) | 8 (≈ 15.2 µM) | 2 | 128 (≈ 243 µM) | 64 (≈ 122 µM) | 16 | >1 | 2 | >8 | MBC [5, 19]: 128 µg/mL (≈ 243 µM); MIC [5, 20]: 8 µg/mL (≈ 15.2 µM); MBC [6, 21]: > 128 µg/mL; MIC [6, 22]: 128 µg/mL (≈ 243 µM); MIC [7, 23]: 8 µg/mL (≈ 15.2 µM); MBC [8, 24]: > 128 µg/mL; MIC [8, 25]: 16 µg/mL (≈ 30.4 µM)
Cc1cc(S(=O)(=O)NC(=O)CCC2CCCCC2)c(SCc2ccc3ccccc3c2)cc1Cl [Compound 12, N-[4-Chloro-5-methyl-2-(naphthalen-2-ylmethylthio)benzenesulfonyl]-3-cyclohexylpropanamide] | 2 | 128 (≈ 248 µM) | 64 (≈ 124 µM) | 77 ± 3 | 88 ± 3 | 94 ± 3 | 47 µg/mL and 92 µM | >1 | > 128 | 128 (≈ 248 µM) | >16 | > 128 | 8 (≈ 15.5 µM) | 1 | 128 (≈ 248 µM) | 128 (≈ 248 µM) | 16 | >1 | 32 | >4 | MBC [5, 19]: 128 µg/mL (≈ 248 µM); MIC [5, 20]: 8 µg/mL (≈ 15.5 µM); MBC [6, 21]: > 128 µg/mL; MIC [6, 22]: 128 µg/mL (≈ 248 µM); MBC [7, 26]: 128 µg/mL (≈ 248 µM); MIC [7, 23]: 4 µg/mL (≈ 7.75 µM); MBC [8, 24]: > 128 µg/mL; MIC [8, 25]: 32 µg/mL (≈ 62 µM)
Cc1cc(S(=O)(=O)NC(=O)C=Cc2ccccc2)c(SCc2ccccc2)cc1Cl [Compound 13, N-{[2-(Benzylthio)-4-chloro-5-methylphenyl]sulfonyl}cinnamamide] | 2 | – | – | – | – | – | – | >1 | – | – | >4 | – | – | >1 | – | – | >4 | >1 | >4 | >1 | MFC [1]: 128 µg/mL (≈ 279 µM); MIC [1]: 64 µg/mL (≈ 140 µM); MBC [2]: > 128 µg/mL; MIC [2]: 128 µg/mL (≈ 279 µM); MBC [3]: > 128 µg/mL; MIC [3]: 32 µg/mL (≈ 69.9 µM); MBC [4]: > 128 µg/mL; MIC [4]: 128 µg/mL (≈ 279 µM); MBC [5]: > 128 µg/mL; MIC [5]: 32 µg/mL (≈ 69.9 µM); MBC [6]: > 128 µg/mL; MIC [6]: 128 µg/mL (≈ 279 µM); MIC ([7]; PCM2118): 32 µg/mL (≈ 69.9 µM); MBC [7, 10]: > 128 µg/mL; MBC [8]: > 128 µg/mL; MIC [8]: > 128 µg/mL
Cc1cc(S(=O)(=O)NC(=O)CCC2CCCCC2)c(SCc2cccc3ccccc23)cc1Cl [Compound 11, N-[4-Chloro-5-methyl-2-(naphthalen-1-ylmethylthio)benzenesulfonyl]-3-cyclohexylpropanamide] | 2 | 128 (≈ 248 µM) | 64 (≈ 124 µM) | 66 ± 1 | 42 ± 2 | 82 ± 4 | 42 µg/mL and 81 µM | >1 | > 128 | 128 (≈ 248 µM) | >16 | > 128 | 8 (≈ 15.5 µM) | >1 | > 128 | 128 (≈ 248 µM) | >16 | >1 | >32 | >16 | MBC [5, 19]: > 128 µg/mL; MIC [5, 20]: 8 µg/mL (≈ 15.5 µM); MBC [6, 21]: > 128 µg/mL; MIC [6, 22]: > 128 µg/mL; MBC [7, 26]: > 128 µg/mL; MIC [7, 23]: 4 µg/mL (≈ 7.75 µM); MBC [8, 24]: > 128 µg/mL; MIC [8, 25]: 8 µg/mL (≈ 15.5 µM)
